Source: patent US6696486B1, “Medical use for atypical β-adrenoceptor agonists” (Glaxo Group Limited, priority 1992, dated 2004)

Tests used:
[1] = tested on: indomethacin-induced antral damage; assay: indomethacin-induced gastric antral lesions in the re-fed rat (Method 2); assay type: in vivo; details: for % Protection: single dose 30 minutes before indomethacin (60 mg/kg s.c.)
Source text: An experimental model in which atypical beta-adrenoceptor agonists may be shown to be of use in the treatment of gastrointestinal disorders is described below as Method 2. The procedure is based upon that described by H. Satoh et. al., Gastroenterology, 81, 719-725 (1981) in which the effect of compounds on indomethacin-induced gastric antral lesions in the re-fed rat is investigated. Indomethacin is an example of the class of compound known as non-steroidal anti-inflammatory drugs (NSAIDs), the use of which is frequently associated with gastrointestinal ulcers.
Food (but not water) is withheld from female random hooded rats (70-120 g) for 24 hours and then the rats are re-fed with Rat and Mouse No. 1 Maintenance Diet. After 1 hour of access to food, the rats are dosed orally with either the test compound or solvent (0.5% w/v methyl cellulose in water). 30 minutes later, indomethacin (60 mg/kg; dissolved in 1% w/v NaHCO3 in saline) is administered as a single subcutaneous injection at the back of the neck. Subsequently, the rats are allowed food, but water is withheld, and the animals are humanely killed by cervical dislocation at 6 hours post dose. Control animals received a single subcutaneous dose of the appropriate solvent.
The rat's stomach is removed (with a small amount of duodenum attached), opened along the greater curvature and the contents removed by washing with 0.9% w/v sodium chloride solution (saline). The opened stomach is pinned out (mucosal surface uppermost) on a polystyrene mat and the area of damage assessed by placing a grid (composed of 1 mm squares) over the antral region. Antral damage appears as discrete black or dark brown ulcers. The total area of antral damage is then expressed as a percentage of the total surface area of the antrum.
The protective effect of the test compound on indomethacin-induced antral damage is calculated as a percentage using the following equation: [formula]

[2] = tested on: indomethacin-induced ulceration of the small intestine; assay: indomethacin-induced ulceration of the small intestine in the rat (Method 3); assay type: in vivo; details: single dose 30 minutes before indomethacin (15 mg/kg p.o.)
Experimental: Another experimental model in which atypical beta-adrenocopter agonists may be shown to be of use in the treatment of gastrointestinal disorders is described below as Method 3. This is a model of indomethacin-induced ulceration of the small intestine in the rat.
Female random hooded rats (100-150 g) are allowed free access to food and water. The rats are dosed orally with either the test compound (1 ml per 100 g of an appropriated dose) or solvent (0.5% w/v methyl cellulose in water). 30 minutes later, indomethacin (15 mg/kg) is administered orally using a dose volume of 1 ml per 100 g of a 1.5 mg/ml solution of indomethacin in 1% w/v NaHCO3. The animals are humanely killed by cervical dislocation at 48 hours post dose.
The rat's small intestine is removed, opened along its length and the contents removed by washing with 0.9% w/v sodium chloride solution (saline). The opened small intestine is pinned out (mucosal surface uppermost) on a polystyrene mat and the area of damage assessed by placing a grid (composed of 1 mm squares) over the preparation. The number of visible ulcers (appearing as discrete black or brown lesions) running the length of the small intestine is counted. The protective effect of the test compound is calculated as a percentage using the following equation: [formula]

[3] = tested on: piroxicam-induced antral damage; assay type: in vivo, rat
[4] = inhibition of indomethacin-induced antral ulceration in rat
[5] = 0.5 mg/kg p.o., single dose 30 minutes before NSAID

## COC(=O)COc1ccc(C[C@@H](C)NC[C@H](O)c2cccc(Cl)c2)cc1 [(R,R)-N-[2-(4-carbomethoxymethoxyphenyl)-1-methylethyl]-2-hydroxy-2-(3-chlorophenyl)ethanamine]
[1]; dose 3 mg/kg p.o.
  Maximum Inhibition (dose; mg/kg p.o.): 100% (3)
[1]; [4]
  ED50: 0.02 mg/kg p.o.

## C[C@H](Cc1ccc(OCC(=O)O)cc1)NC[C@H](O)c1cccc(Cl)c1 [(R,R)-N-[2-(4-carboxymethoxyphenyl)-1-methylethyl]-2-hydroxy-2-(3-chlorophenyl)ethanamine]
[1]; dose 3 mg/kg p.o.
  Maximum Inhibition (dose; mg/kg p.o.): 100% (3)
[1]; [4]
  ED50: 0.03 mg/kg p.o.

## C[C@H](Cc1ccc2c(c1)OC(C(=O)O)(C(=O)O)O2)NC[C@@H](O)c1cccc(Cl)c1 [(R,S)-5-(2-((2-(3-chlorophenyl)-2-hydroxyethyl)amino)propyl)-1,3-benzodioxole-2,2-dicarboxylic acid]
[1]; dose 1 mg/kg p.o.
  Maximum Inhibition (dose; mg/kg p.o.): 64% (1)
[1]; [4]
  ED50: 0.6 mg/kg p.o.

## COC(=O)COc1ccc(C[C@H](C)NC[C@H](O)c2cccc(Cl)c2)cc1 [(R,S)-N-[2-(4-carbomethoxymethoxyphenyl)-1-methylethyl]-2-hydroxy-2-(3-chlorophenyl)ethanamine]
[1]; dose 3 mg/kg p.o.
  Maximum Inhibition (dose; mg/kg p.o.): 93% (3)
[1]; [4]
  ED50: 0.2 mg/kg p.o.

## C[C@@H](Cc1ccc(OCC(=O)O)cc1)NC[C@H](O)c1cccc(Cl)c1 [(R,S)-N-[2-(4-carboxymethoxyphenyl)-1-methylethyl]-2-hydroxy-2-(3-chlorophenyl)ethanamine]
[1]; dose 3 mg/kg p.o.
  Maximum Inhibition (dose; mg/kg p.o.): 77% (3)
[1]; [4]
  ED50: 0.3 mg/kg p.o.

## COC(=O)COc1ccc(C[C@@H](C)NC[C@@H](O)c2cccc(Cl)c2)cc1 [(S,R)-N-[2-(4-carbomethoxymethoxyphenyl)-1-methylethyl]-2-hydroxy-2-(3-chlorophenyl)ethanamine]
[1]; dose 3 mg/kg p.o.
  Maximum Inhibition (dose; mg/kg p.o.): 88% (3)
[1]; [4]
  ED50: 0.5 mg/kg p.o.

## C[C@@H](Cc1ccc(OCC(=O)O)cc1)NC[C@@H](O)c1cccc(Cl)c1 [(S,S)-N-[2-(4-carboxymethoxyphenyl)-1-methylethyl]-2-hydroxy-2-(3-chlorophenyl)ethanamine]
[1]; dose 3 mg/kg p.o.
  Maximum Inhibition (dose; mg/kg p.o.): 97% (3)
[1]; [4]
  ED50: 0.8 mg/kg p.o.

## COC(=O)COc1ccc(CC(C)NCC(O)c2cccc(Cl)c2)cc1 (stereo not shown) [BRL 35135, N-[2-(4-carbomethoxymethoxyphenyl)-1-methylethyl]-2-hydroxy-2-(3-chlorophenyl)ethanamine]
[2]; 0.05 mg/kg p.o.
  % inhibition: 24 ± 15%
[2]; 0.1 mg/kg p.o.
  % inhibition: 35 ± 7%
[2]; 0.5 mg/kg p.o.
  % inhibition: 76 ± 3%
[2]; 2.5 mg/kg p.o.
  % inhibition: 85 ± 3%
[2]; 10 mg/kg p.o.
  % inhibition: 80 ± 3%
[1]; 20 μg/kg p.o.
  % Protection: 40%
[1]; 50 μg/kg p.o.
  % Protection: 48%
[1]; 100 μg/kg p.o.
  % Protection: 88%
[1]; 500 μg/kg p.o.
  % Protection: 97%
[1]; gastro-protection against indomethacin-induced antral damage, rat
  ED50: approximately 50 μg/kg p.o.

## C[C@H](Cc1ccc2c(c1)OC(C(=O)O)(C(=O)O)O2)NC[C@H](O)c1cccc(Cl)c1 [CL 316243, (R,R)-5-(2-((2-(3-chlorophenyl)-2-hydroxyethyl)amino)propyl)-1,3-benzodioxole-2,2-dicarboxylic acid]
[2]; 10 mg/kg p.o.
  % inhibition: 93 ± 4%
[1]; [5]
  % inhibition of indomethacin-induced damage: 83%
[1]; dose 1 mg/kg p.o.
  Maximum Inhibition (dose; mg/kg p.o.): 96% (1)
[1]; [4]
  ED50: 0.03 mg/kg p.o.
[3]; [5]
  % inhibition of piroxicam-induced damage: 96%

## COc1ccc2c(c1)c(CC(=O)O)c(C)n2C(=O)c1ccc(Cl)cc1 [indomethacin, reference compound]
[1]; subcutaneous dose of 60 mg/kg, rat
  percentage area of damage (antral): 19±5%

## CN1C(C(=O)Nc2ccccn2)=C(O)c2ccccc2S1(=O)=O [piroxicam, reference compound]
[3]; female, random hooded, rat, in vivo, sc, 60 mg/kg, 6 h
  percentage area of antral damage: 21±3%
